Drawing on patent publication US20210024498A1, “TETRAHYDROPYRROLE COMPOUND, PREPARATION METHOD THEREFOR, PHARMACEUTICAL COMPOSITION CONTAINING SAME, AND USE THEREOF” (MEDICONNS (SHANGHAI) BIOPHARMACEUTICAL CO., LTD, priority 2017, published 2021), this text covers IC50 for three compounds.

The term IC50 denotes the concentration needed to halve the response being measured. Read a high IC50 as weaker potency in that assay.

One assay deals with DAT (Homo sapiens, UniProt Q01959). Kind of assay: DAT transporter assay (neurotransmitter transporter absorption assay). Type of assay: cell-based. The protocol:
(§1) Bioactivity Test • I. D2 receptor affinity assay: The affinity of the compound to D2 receptor was determined by radioligand competition assay, and the cloned D2 receptor was expressed in HEK293 cell line. • II. D2 receptor function assay: The ability of the compound to antagonize the D2 receptor was determined using a calcium mobilization assay (FLIPR). • III. DAT receptor function assay: The ability of the compound to inhibit DAT was determined by neurotransmitter transporter absorption assay.
• HBSS1×, REPES 20 mM, BSA 0.1%.
• Lyophilized fluorescent dye 1 vial, Assay buffer 10 mL.
• BTCP—hydrochloride (Sigma)
• i) The medium was preheated in 37° C. water bath in advance for more than 30 minutes for later use. • j) The preheated medium was taken out, disinfected with 75% alcohol, and put into a biosafety cabinet. • k) The cultured cells were taken out from the […], and the medium was removed by a vacuum pump. 1× DPBS was added, incubated for a moment, and then removed by a vacuum pump. Appropriate amount of 0.05% trypsin-EDTA was added for cell digestion. The digestion was terminated by 10% FBS medium, and the cells were pipetted and dispersed. • l) The dispersed cells were transferred into a 50 mL centrifuge tube with a pipette.
• a) The reference compound was diluted in a ratio of 1:3 to 10 concentration gradients with the detection buffer containing 0.1% BSA, with the highest concentration being 2 μM. The compound to be tested was diluted to 20 uM with the detection buffer containing 0.1% BSA. • b) A centrifuge (750 rpm, 15 s) was used to spin off the culture solution in the cell culture plate, and the compound solution in step 1 was transferred to the cell culture plate (25 uL/well). • HC (High control): 25 μL of 0.1% BSA detection buffer containing 0.2% DMSO. • LC (Low control): 25 μL of solution containing 2 μM positive antagonist. • c) After centrifugation at 300 rpm for 15 seconds, the plate was incubated at 37° C. for 30 minutes. After the incubation with the compound was completed, a dye solution (25 μL/well) was added and incubated at 37° C. for 30 minutes.
Inhibitor % activity=100−(signal value per well−average value for LC well)/(average value for H well−average value for LC well)*100%.

In another assay the target is T1, D2 receptor (Homo sapiens, UniProt P14416).
T1 construct: expressed in transfected cells; host or cells: HEK293
Kind of assay: D2 receptor affinity assay (radioligand competition, 3H-7-OH-DPAT). Type of assay: binding. The following applies: cloned D2 receptor expressed in HEK293 cell line; 3H-7-OH-DPAT 1 nM. The protocol:
as §1
• Experimental buffer: 50 mM Tris-HCl, pH 7.4, 5 mM MgCl2 • Washing buffer: 50 mM Tris-HCl pH 7.4, stored at 4° C. ready for use.
• The compound and positive control 7-OH-DPAT were serially diluted with DMSO, with the initial concentration of 2 mM and 4 times serial dilution, a total of 10 concentrations. 1 μL was transferred to the designated position of the 96-well plate. • 1 μL droperidol (final concentration 10 μM) was added to the positive control well. 1 μL DMSO was added to the negative control well.
• Receptor cell membrane was diluted to 10 μg/well with corresponding experimental buffer, with 100 μL cell membrane/well.
• 3H-7-OH-DPAT was diluted to 2 nM with corresponding experimental buffer, and the final concentration was 1 nM.
• After 100 μL of cell membrane and isotope were added, respectively, the reaction plate of the D2 receptor was incubated at room temperature for 1 hour. The GF/C filter plate was soaked in 0.3% PEI solution for more than half an hour. After the reaction was completed, the cell membrane was collected on the GF/C filter plate using the […], washed 4 times with cold washing buffer, and then dried in an oven at 50° C. for 1 hour. The dried GF/C filter plate was sealed at the bottom, 50 μL of scintillation fluid was added to each well and the well was sealed. Reads were obtained by MicroBeta and the data was analyzed using GraphPad Prism 5.0.
Ki=IC50/(1+isotope concentration/Kd)
For orientation: In a radioligand displacement assay an active substance lowers the binding of a labelled ligand.

T1 sequence (P14416 whole entry): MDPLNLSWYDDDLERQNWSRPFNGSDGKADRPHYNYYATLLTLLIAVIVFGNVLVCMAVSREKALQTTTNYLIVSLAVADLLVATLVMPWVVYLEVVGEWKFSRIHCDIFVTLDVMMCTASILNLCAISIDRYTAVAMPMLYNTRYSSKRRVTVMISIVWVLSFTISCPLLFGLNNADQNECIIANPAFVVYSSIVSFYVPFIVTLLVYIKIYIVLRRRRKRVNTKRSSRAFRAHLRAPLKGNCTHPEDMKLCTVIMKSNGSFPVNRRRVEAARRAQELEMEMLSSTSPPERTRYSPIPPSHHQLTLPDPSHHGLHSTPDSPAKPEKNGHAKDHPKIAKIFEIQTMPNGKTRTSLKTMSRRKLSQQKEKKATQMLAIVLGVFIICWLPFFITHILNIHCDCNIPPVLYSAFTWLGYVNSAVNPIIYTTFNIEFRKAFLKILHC
DAT, sequence (Q01959 whole entry, species assumed): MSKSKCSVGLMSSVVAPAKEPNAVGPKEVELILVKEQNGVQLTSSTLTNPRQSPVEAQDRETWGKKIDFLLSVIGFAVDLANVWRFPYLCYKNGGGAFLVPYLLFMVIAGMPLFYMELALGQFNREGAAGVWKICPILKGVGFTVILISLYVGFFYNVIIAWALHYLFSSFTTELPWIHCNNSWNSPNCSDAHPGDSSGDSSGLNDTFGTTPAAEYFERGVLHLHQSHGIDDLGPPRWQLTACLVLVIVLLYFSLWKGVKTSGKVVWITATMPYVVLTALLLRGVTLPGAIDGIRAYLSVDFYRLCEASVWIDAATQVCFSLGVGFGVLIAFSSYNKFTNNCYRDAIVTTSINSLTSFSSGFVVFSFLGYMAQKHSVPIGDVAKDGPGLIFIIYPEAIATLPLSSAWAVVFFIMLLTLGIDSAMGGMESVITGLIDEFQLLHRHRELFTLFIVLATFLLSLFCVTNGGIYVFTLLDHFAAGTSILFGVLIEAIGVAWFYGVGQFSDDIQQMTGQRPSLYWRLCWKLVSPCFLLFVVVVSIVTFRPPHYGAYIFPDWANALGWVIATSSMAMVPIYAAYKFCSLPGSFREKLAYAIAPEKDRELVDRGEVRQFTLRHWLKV

Regarding `Oc1cccc(C2CCN(Cc3c[nH]c4ccccc34)C2)c1` (racemic) [MDC-161502-002, 1-(indole-3-methyl)-3-(3-hydroxyphenyl)pyrrolidine], the figures for the IC50 at DAT and at D2 receptor were 181 nM and 14 nM, respectively.
In the same order, the values of `O=S(=O)(CC(F)(F)F)Nc1cccc(C2CCN(Cc3c[nH]c4ccccc34)C2)c1` (stereo not drawn) [MDC-161502-006, 1-(indole-3-methyl)-3-(3-trifluoroethanesulfonamidophenyl)pyrrolidine] are 762 nM and 639 nM.
In the same order, the values of `O=S(=O)(Nc1cccc(C2CCN(Cc3c[nH]c4ccccc34)C2)c1)c1cccs1` (stereo not drawn) [MDC-161502-008, 1-(indole-3-methyl)-3-[3-(2-thiophenesulfonamido)phenyl]pyrrolidine] are 936 nM and 120 nM.
